Laboratory results taken from article PMC9220351, “Evaluation of a Conformationally Constrained Indole Carboxamide as a Potential Efflux Pump Inhibitor in Pseudomonas aeruginosa” (Antibiotics, 2022).
Like-named read-outs stand apart in the source and are kept apart here.

What was measured:
Format in all cases: cell-based, Pseudomonas aeruginosa
[1] = test system: 34 MDR P. aeruginosa clinical isolates (CDC & FDA AR Isolate Bank); assay: microbe, parasite or virus in culture; details: for MIC: Pseudomonas aeruginosa, alone or + labelled EPI […] (TXA09155 head: 50 µg/mL)
Source text: P. aeruginosa ATCC 27853 was obtained from the American Type Culture Collection (ATCC; Manassas, VA, USA). P. aeruginosa multidrug-resistant isolates were obtained from the CDC and FDA Antibiotic Resistance Isolate Bank (Atlanta, GA, USA). P. aeruginosa DA7232 (gyrA-T83I, parC-S80L) was a kind gift from Prof. Dan I. Andersson, Uppsala University, Uppsala, Sweden, and has been characterized elsewhere. P. aeruginosa strains K767 (WT), K1455 (mexAB-oprM overexpressed), K2415 (mexXY-oprM overexpressed), and K3698 (oprM∆) were obtained from Prof. Keith Poole, Queen’s University, Kingston, Ontario, Canada and have been characterized elsewhere. Bacterial cells were grown in cation-adjusted Mueller Hinton (CAMH) media, brain heart infusion broth (BHI), or tryptic soy agar (TSA) plates were all obtained from Becton, Dickinson, and Company (BD; Franklin Lakes, NJ, USA). […] Azithromycin was purchased from Tokyo Chemical Industry (Portland, OR, USA). […] Ethidium bromide (EtBr) and glucose were purchased from VWR (Radnor, PA, USA). MC-04,124 and TXA01182 were synthesized at TAXIS Pharmaceuticals. Carbonyl cyanide 3-chlorophenylhydrazone (CCCP) was purchased from Enzo Life Sciences (Farmingdale, NY, USA). DiOC2 (3) and propidium iodide were obtained from Thermo Fisher Scientific (Waltham, MA, USA).
(§1) MIC assays were performed as described previously.

[2] = test system: P. aeruginosa mutants EPIR1S, EPIR9S, EPIR20L, EPIR43; assay: MIC of antimicrobials in TXA09155-resistant mutants; details: Pseudomonas aeruginosa
Description: All resistant colonies were verified by determining the MIC to TXA09155. […] This two-component system regulates the expression of more than 100 genes in P. aeruginosa, including genes that code for efflux components (mexX), and plays a role in the resistance to cationic antimicrobial peptides and aminoglycoside antibiotics.
as §1

[3] = test system: 209 P. aeruginosa clinical isolates from three US hospitals; assay: Susceptibility study, Micromyx panel; details: n: 209
Source text: First, 209 clinical isolates of P. aeruginosa were collected, unbiased of susceptibility, from three US hospitals by Micromyx (now part of Microbiologics; Kalamazoo, MI, USA). IHMA (Monthey, Switzerland) collected 300 P. aeruginosa clinical isolates, also unbiased of susceptibility, from the following 63 countries: Argentina, Australia, Belgium, Brazil, Canada, Chile, Colombia, Costa Rica, Croatia, Czech Republic, Denmark, Dominican Republic, Ecuador, France, Georgia, Germany, Greece, Guatemala, Hong Kong, Hungary, India, Ireland, Israel, Italy, Japan, Jordan, Kazakhstan, Kenya, South Korea, Kuwait, Latvia, Lebanon, Lithuania, Malaysia, Mexico, Morocco, Netherlands, New Zealand, Nigeria, Panama, Philippines, Poland, Portugal, Puerto Rico, Qatar, Romania, Russia, Saudi Arabia, Serbia, Slovenia, South Africa, Spain, Sweden, Switzerland, Taiwan, Thailand, Tunisia, Turkey, Ukraine, United Kingdom, United States, Venezuela, and Vietnam. Isolates came from the following types of infection: genitourinary (urine), gastrointestinal (stomach), gastrointestinal (pancreas), […] (wound), respiratory (sputum), […] (blood), respiratory (bronchoalveolar lavage), […] (burn), respiratory (endotracheal aspirate), bodily fluids (abscess/pus), […] (impetiginous lesions), gastrointestinal (abscess) and respiratory (bronchial brushing). CF patients were not excluded.
as §1

[4] = n: 34, in combination EPI fixed […]
[5] = in combination TXA09155 fixed […]

Structure (SMILES): C[C@H]1COc2c(N3CCN(C)CC3)c(F)cc3c(=O)c(C(=O)O)cn1c23 [Levofloxacin]
- MIC ([1]; read-out: Levofloxacin MIC, strain AR-0229): 64 µg/mL
- MIC ([1]; read-out: Levofloxacin MIC, strain AR-0230): 64 µg/mL
- MIC ([1]; read-out: Levofloxacin MIC, strain AR-0231): 64 µg/mL
- MIC ([1]; read-out: Levofloxacin MIC, strain AR-0232): 8 µg/mL
- MIC ([1]; read-out: Levofloxacin MIC, strain AR-0233): 4 µg/mL
- MIC ([1]; read-out: Levofloxacin MIC, strain AR-0234): 8 µg/mL
- MIC ([1]; read-out: Levofloxacin MIC, strain AR-0236): 32 µg/mL
- MIC ([1]; read-out: Levofloxacin MIC, strain AR-0239): 64 µg/mL
- MIC ([1]; read-out: Levofloxacin MIC, strain AR-0240): 128 µg/mL
- MIC ([1]; read-out: Levofloxacin MIC, strain AR-0241): 64 µg/mL
- MIC ([1]; read-out: Levofloxacin MIC, strain AR-0242): 16 µg/mL
- MIC ([1]; read-out: Levofloxacin MIC, strain AR-0244): 128 µg/mL
- MIC ([1]; read-out: Levofloxacin MIC, strain AR-0245): 128 µg/mL
- MIC ([1]; read-out: Levofloxacin MIC, strain AR-0246): 64 µg/mL
- MIC ([1]; read-out: Levofloxacin MIC, strain AR-0247): 2 µg/mL
- MIC ([1]; read-out: Levofloxacin MIC, strain AR-0248): 16 µg/mL
- MIC ([1]; read-out: Levofloxacin MIC, strain AR-0249): 64 µg/mL
- MIC ([1]; read-out: Levofloxacin MIC, strain AR-0250): 64 µg/mL
- MIC ([1]; read-out: Levofloxacin MIC, strain AR-0252): 32 µg/mL
- MIC ([1]; read-out: Levofloxacin MIC, strain AR-0253): 2 µg/mL
- MIC ([1]; read-out: Levofloxacin MIC, strain AR-0256): 0.5 µg/mL
- MIC ([1]; read-out: Levofloxacin MIC, strain AR-0258): 0.5 µg/mL
- MIC ([1]; read-out: Levofloxacin MIC, strain AR-0259): 0.5 µg/mL
- MIC ([1]; read-out: Levofloxacin MIC, strain AR-0260): 64 µg/mL
- MIC ([1]; read-out: Levofloxacin MIC, strain AR-0261): 8 µg/mL
- MIC ([1]; read-out: Levofloxacin MIC, strain AR-0262): 4 µg/mL
- MIC ([1]; read-out: Levofloxacin MIC, strain AR-0264): 32 µg/mL
- MIC ([1]; read-out: Levofloxacin MIC, strain AR-0265): 64 µg/mL
- MIC ([1]; read-out: Levofloxacin MIC, strain AR-0266): 32 µg/mL
- MIC ([1]; read-out: Levofloxacin MIC, strain AR-0267): 32 µg/mL
- MIC ([1]; read-out: Levofloxacin MIC, strain AR-0269): 32 µg/mL
- MIC ([1]; read-out: Levofloxacin MIC, strain AR-0270): 32 µg/mL
- MIC ([1]; read-out: Levofloxacin MIC, strain AR-0271): 32 µg/mL
- MIC ([1]; read-out: Levofloxacin MIC, strain AR-0272): 16 µg/mL
- Cumulative Susceptibility % Strains at 0.5 ([1]; concentration 0.5 µg/ml, n: 34): 9%
- Cumulative Susceptibility % Strains at 1 ([1]; concentration 1 µg/ml, n: 34): 9%
- Cumulative Susceptibility % Strains at 2 ([1]; concentration 2 µg/ml, n: 34): 15%
- Cumulative Susceptibility % Strains at 4 ([1]; concentration 4 µg/ml, n: 34): 21%
- Cumulative Susceptibility % Strains at 8 ([1]; concentration 8 µg/ml, n: 34): 29%
- Cumulative Susceptibility % Strains at 16 ([1]; concentration 16 µg/ml, n: 34): 38%
- Cumulative Susceptibility % Strains at 32 ([1]; concentration 32 µg/ml, n: 34): 62%
- Cumulative Susceptibility % Strains at 0.06 ([1]; concentration column 0.06 µg/ml, n: 34): 0%
- Cumulative Susceptibility % Strains at 64 ([1]; concentration column 64 µg/ml, n: 34): 91%
- Cumulative Susceptibility % Strains at 128 ([1]; concentration column 128 µg/ml, n: 34): 100%
- Cumulative Susceptibility % Strains at ≤0.03 ([1]; concentration column ≤0.03 µg/ml, n: 34): 0%
- MIC50 [1, 4]: 32 µg/mL
- MIC90 [1, 4]: 64 µg/mL
- MIC Range [1, 4]: 0.5 to 128 µg/mL
- MIC Range ([1]; n: 34, in combination EPI fixed […], listed as LVX): 0.5 to 128 µg/mL
- MIC ([2]; strain EPIR1S (phoQ-L175R)): 1 µg/mL
- MIC ([2]; strain EPIR9S (phoQ-L175R)): 1 µg/mL
- MIC ([2]; strain EPIR20L (phoQ-H248D)): 1 µg/mL
- % R (percent resistant per breakpoints) ([3]; LVX ≤1S 2I ≥4R): 32%
- Cumulative Susceptibility % Strains at 0.5 ([3]; concentration 0.5 µg/ml): 47%
- Cumulative Susceptibility % Strains at 1 ([3]; concentration 1 µg/ml): 58%
- Cumulative Susceptibility % Strains at 2 ([3]; concentration 2 µg/ml): 68%
- Cumulative Susceptibility % Strains at 4 ([3]; concentration 4 µg/ml): 78%
- Cumulative Susceptibility % Strains at 8 ([3]; concentration 8 µg/ml): 86%
- Cumulative Susceptibility % Strains at 16 ([3]; concentration 16 µg/ml): 93%
- Cumulative Susceptibility % Strains at 32 ([3]; concentration 32 µg/ml): 98%
- Cumulative Susceptibility % Strains at >32 ([3]; concentration >32 µg/ml): 100%
- Cumulative Susceptibility % Strains at 0.12 ([3]; concentration column 0.12 µg/ml): 2%
- MIC50 [3, 5]: 1 µg/mL
- MIC90 [3, 5]: 16 µg/mL
